Assay results taken from BigSolDB 2.1.

CNC(=O)NC
solubility (mole fraction)
Conditions | 288.15 K | 293.15 K | 298.15 K | 303.15 K | 308.15 K | 313.15 K | 318.15 K | 323.15 K | 328.15 K
in acetone | 0.129 | 0.152 | 0.177 | 0.202 | 0.228 | 0.261 | 0.301 | 0.339 | 0.376
in acetonitrile | 0.102 | 0.128 | 0.151 | 0.186 | 0.216 | 0.25 | 0.282 | 0.322 | 0.363
in ethyl acetate | 0.0302 | 0.0421 | 0.0608 | 0.0825 | 0.111 | 0.14 | 0.175 | 0.22 | 0.271
in isopropanol | 0.331 | 0.352 | 0.372 | 0.39 | 0.416 | 0.438 | 0.471 | 0.5 | 0.533
in n-butyl acetate | 0.0137 | 0.0205 | 0.0296 | 0.0408 | 0.0602 | 0.0834 | 0.111 | 0.148 | 0.195
in sec-butanol | 0.325 | 0.353 | 0.381 | 0.412 | 0.438 | 0.46 | 0.494 | 0.523 | 0.561
in water | 0.362 | 0.38 | 0.405 | 0.436 | 0.464 | 0.494 | 0.533 | 0.57 | 0.601
